# Data published in patent publication US10045983B2, “Heteroaryl pyridone and aza-pyrodine compounds” (Genentech, Inc., priority 2011, dated 2018).
# Assay: CD69 Whole Blood Assay (CD69 Hu Blood FACS)
# Assay type: cell-based, human
# Settings: Lymphocyte; human whole blood, anti-IgM activated B lymphocytes, FACS; IC70; Table 2 (unit inferred); read-out: CD69 Hu Blood FACS (IC70)
# Procedure, shortened: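 Human whole blood stimulated by crosslinking surface IgM with goat F(ab′)2 anti-human IgM; inhibition of CD69 expression on B lymphocytes measured by flow cytometry.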
row,SMILES,IC70 [µM]
1,"Cn1cc(-c2ccnc(N3CCn4c(cc5c4CC(C)(C)C5)C3=O)c2CO)cc(Nc2cccc(N)n2)c1=O [Example 221, 3-[4-[5-[(6-amino-2-pyridyl)amino]-1-methyl-6-oxo-3-pyridyl]-3-(hydroxymethyl)-2-pyridyl]-7,7-dimethyl-1,2,6,8-tetrahydrocyclopenta[3,4]pyrrolo[3,5-b]pyrazin-4-one]",0.121
2,"Cc1nccc(Nc2cc(-c3ccnc(N4CCn5c(cc6c5CC(C)(C)C6)C4=O)c3CO)c[nH]c2=O)n1 [Example 222, 3-[3-(hydroxymethyl)-4-[5-[(2-methylpyrimidin-4-yl)amino]-6-oxo-1H-pyridin-3-yl]-2-pyridyl]-7,7-dimethyl-1,2,6,8-tetrahydrocyclopenta[3,4]pyrrolo[3,5-b]pyrazin-4-one]",0.178
3,"CN1CCc2nc(Nc3cc(-c4ccnc(N5CCn6c7c(c(F)c6C5=O)CCCC7)c4CO)cn(C)c3=O)sc2C1 [Example 223, 10-fluoro-2-[3-(hydroxymethyl)-4-[1-methyl-5-[(5-methyl-6,7-dihydro-4H-thiazolo[5,4-c]pyridin-2-yl)amino]-6-oxo-3-pyridyl]-2-pyridyl]-3,4,6,7,8,9-hexahydropyrazino[1,2-a]indol-1-one]",0.43
4,"C[C@H]1CN(C2COC2)CCN1c1ccc(Nc2cc(-c3ccnc(N4CCn5c(cc6c5CC(C)(C)C6)C4=O)c3CO)nn(C)c2=O)nc1 [Example 224, 3-[3-(hydroxymethyl)-4-[1-methyl-5-[[5-[(2S)-2-methyl-4-(oxetan-3-yl)piperazin-1-yl]-2-pyridyl]amino]-6-oxo-pyridazin-3-yl]-2-pyridyl]-7,7-dimethyl-1,2,6,8-tetrahydrocyclopenta[3,4]pyrrolo[3,5-b]pyrazin-4-one]",0.0307
5,"Cc1nccc(Nc2cc(-c3ccnc(N4CCn5c(cc6c5CC(C)(C)C6)C4=O)c3CO)nn(C)c2=O)n1 [Example 225, 3-[3-(hydroxymethyl)-4-[1-methyl-5-[(2-methylpyrimidin-4-yl)amino]-6-oxo-pyridazin-3-yl]-2-pyridyl]-7,7-dimethyl-1,2,6,8-tetrahydrocyclopenta[3,4]pyrrolo[3,5-b]pyrazin-4-one]",0.766
6,"Cn1nc(-c2ccnc(N3CCn4c(cc5c4CC(C)(C)C5)C3=O)c2CO)cc(Nc2ccc(C(=O)N3CCOCC3)cn2)c1=O [Example 226, 3-[3-(hydroxymethyl)-4-[1-methyl-5-[[5-(morpholine-4-carbonyl)-2-pyridyl]amino]-6-oxo-pyridazin-3-yl]-2-pyridyl]-7,7-dimethyl-1,2,6,8-tetrahydrocyclopenta[3,4]pyrrolo[3,5-b]pyrazin-4-one]",0.117
7,"Cn1nc(-c2ccnc(N3CCn4c(cc5c4CCCC5)C3=O)c2CO)cc(Nc2ccc(C(=O)N3CCOCC3)cn2)c1=O [Example 227, 2-[3-(hydroxymethyl)-4-[1-methyl-5-[[5-(morpholine-4-carbonyl)-2-pyridyl]amino]-6-oxo-pyridazin-3-yl]-2-pyridyl]-3,4,6,7,8,9-hexahydropyrazino[1,2-a]indol-1-one]",0.73
8,"C[C@H]1CN(C2COC2)CCN1c1cnc(Nc2cc(-c3ccnc(N4CCn5c(cc6c5CCCC6)C4=O)c3CO)cn(C)c2=O)cn1 [Example 228, 2-[3-(hydroxymethyl)-4-[1-methyl-5-[[5-[(2S)-2-methyl-4-(oxetan-3-yl)piperazin-1-yl]pyrazin-2-yl]amino]-6-oxo-3-pyridyl]-2-pyridyl]-3,4,6,7,8,9-hexahydropyrazino[1,2-a]indol-1-one]",0.369
9,"CCc1nccc(Nc2cc(-c3ccnc(N4CCn5c(cc6c5CC(C)(C)C6)C4=O)c3CO)cn(C)c2=O)n1 [Example 229, 3-[4-[5-[(2-ethylpyrimidin-4-yl)amino]-1-methyl-6-oxo-3-pyridyl]-3-(hydroxymethyl)-2-pyridyl]-7,7-dimethyl-1,2,6,8-tetrahydrocyclopenta[3,4]pyrrolo[3,5-b]pyrazin-4-one]",0.583
10,"C[C@H]1CN(C2COC2)CCN1c1cnc(Nc2cc(-c3ccnc(-n4ncc5c6c(sc5c4=O)CCCC6)c3CO)cn(C)c2=O)cn1 [Example 230, 3-[3-(hydroxymethyl)-4-[1-methyl-5-[[5-[(2S)-2-methyl-4-(oxetan-3-yl)piperazin-1-yl]pyrazin-2-yl]amino]-6-oxo-3-pyridyl]-2-pyridyl]-6,7,8,9-tetrahydrobenzothiopheno[2,3-d]pyridazin-4-one]",0.179
11,"C[C@H]1CN(C2COC2)CCN1c1ccc(Nc2cc(-c3ccnc(N4CCn5c6c(c(F)c5C4=O)CCCC6)c3CO)nn(C)c2=O)nc1 [Example 231, 10-fluoro-2-[3-(hydroxymethyl)-4-[1-methyl-5-[[5-[(2S)-2-methyl-4-(oxetan-3-yl)piperazin-1-yl]-2-pyridyl]amino]-6-oxo-pyridazin-3-yl]-2-pyridyl]-3,4,6,7,8,9-hexahydropyrazino[1,2-a]indol-1-one]",0.0624
12,"CN1CCC(c2ccc(Nc3cc(-c4ccnc(N5CCn6c(cc7c6CCCC7)C5=O)c4CO)cn(C)c3=O)nc2)CC1 [Example 232, 2-[3-(hydroxymethyl)-4-[1-methyl-5-[[5-(1-methyl-4-piperidyl)-2-pyridyl]amino]-6-oxo-3-pyridyl]-2-pyridyl]-3,4,6,7,8,9-hexahydropyrazino[1,2-a]indol-1-one]",0.0518
13,"Cn1cc(-c2ccnc(N3CCn4c(cc5c4CC(C)(C)C5)C3=O)c2CO)cc(Nc2nc3c(s2)CNCC3)c1=O [Example 233, 3-[3-(hydroxymethyl)-4-[1-methyl-6-oxo-5-(4,5,6,7-tetrahydrothiazolo[5,4-c]pyridin-2-ylamino)-3-pyridyl]-2-pyridyl]-7,7-dimethyl-1,2,6,8-tetrahydrocyclopenta[3,4]pyrrolo[3,5-b]pyrazin-4-one]",0.0657
14,"CC(=O)N1CCc2nc(Nc3cc(-c4ccnc(N5CCn6c7c(c(F)c6C5=O)CCCC7)c4CO)cn(C)c3=O)sc2C1 [Example 234, 2-[4-[5-[(5-acetyl-6,7-dihydro-4H-thiazolo[5,4-c]pyridin-2-yl)amino]-1-methyl-6-oxo-3-pyridyl]-3-(hydroxymethyl)-2-pyridyl]-10-fluoro-3,4,6,7,8,9-hexahydropyrazino[1,2-a]indol-1-one]",0.183
15,"C[C@H]1CN(C2COC2)CCN1c1cnc(Nc2cc(-c3ccnc(N4CCn5c(cc6c5CC(C)(C)C6)C4=O)c3CO)cn(C)c2=O)cn1 [Example 235, 3-[3-(hydroxymethyl)-4-[1-methyl-5-[[5-[(2S)-2-methyl-4-(oxetan-3-yl)piperazin-1-yl]pyrazin-2-yl]amino]-6-oxo-3-pyridyl]-2-pyridyl]-7,7-dimethyl-1,2,6,8-tetrahydrocyclopenta[3,4]pyrrolo[3,5-b]pyrazin-4-one]",0.112
16,"CN1CCC(c2ccc(Nc3cc(-c4ccnc(N5CCn6c(cc7c6CC(C)(C)C7)C5=O)c4CO)cn(C)c3=O)nc2)CC1 [Example 236, 3-[3-(hydroxymethyl)-4-[1-methyl-5-[[5-(1-methyl-4-piperidyl)-2-pyridyl]amino]-6-oxo-3-pyridyl]-2-pyridyl]-7,7-dimethyl-1,2,6,8-tetrahydrocyclopenta[3,4]pyrrolo[3,5-b]pyrazin-4-one]",0.0336
17,"C[C@H]1CN(C2COC2)CCN1c1ccc(Nc2cc(-c3ccnc(N4CCc5c(c(F)c6n5CCCC6)C4=O)c3CO)cn(C)c2=O)nc1 [Example 237, 10-fluoro-2-[3-(hydroxymethyl)-4-[1-methyl-5-[[5-[(2S)-2-methyl-4-(oxetan-3-yl)piperazin-1-yl]-2-pyridyl]amino]-6-oxo-3-pyridyl]-2-pyridyl]-3,4,6,7,8,9-hexahydropyrido[3,4-b]indolizin-1-one]",0.0461
18,"CN1CC(c2ccc(Nc3cc(-c4ccnc(N5CCn6c(cc7c6CCCC7)C5=O)c4CO)cn(C)c3=O)nc2)C1 [Example 239, 2-[3-(hydroxymethyl)-4-[1-methyl-5-[[5-(1-methylazetidin-3-yl)-2-pyridyl]amino]-6-oxo-3-pyridyl]-2-pyridyl]-3,4,6,7,8,9-hexahydropyrazino[1,2-a]indol-1-one]",0.153
19,"CN1CC(c2ccc(Nc3cc(-c4ccnc(N5CCn6c(cc7c6CC(C)(C)C7)C5=O)c4CO)cn(C)c3=O)nc2)C1 [Example 240, 3-[3-(hydroxymethyl)-4-[1-methyl-5-[[5-(1-methylazetidin-3-yl)-2-pyridyl]amino]-6-oxo-3-pyridyl]-2-pyridyl]-7,7-dimethyl-1,2,6,8-tetrahydrocyclopenta[3,4]pyrrolo[3,5-b]pyrazin-4-one]",0.0229
20,"CN1CCn2nc(Nc3cc(-c4ccnc(N5CCc6c(c(F)c7n6CCCC7)C5=O)c4CO)cn(C)c3=O)cc2C1 [Example 241, 10-fluoro-2-[3-(hydroxymethyl)-4-[1-methyl-5-[(5-methyl-6,7-dihydro-4H-pyrazolo[1,5-a]pyrazin-2-yl)amino]-6-oxo-3-pyridyl]-2-pyridyl]-3,4,6,7,8,9-hexahydropyrido[3,4-b]indolizin-1-one]",0.19
21,"Cc1cc(Nc2cc(-c3ccnc(N4CCc5c(cc6n5CCCC6)C4=O)c3CO)cn(C)c2=O)nn1C [Example 242, 2-[4-[5-[(1,5-dimethylpyrazol-3-yl)amino]-1-methyl-6-oxo-3-pyridyl]-3-(hydroxymethyl)-2-pyridyl]-3,4,6,7,8,9-hexahydropyrido[3,4-b]indolizin-1-one]",1.2
22,"Cn1cc(-c2ccnc(N3CCn4c(cc5c4CCCC5)C3=O)c2CO)cc(Nc2cn(C3CCN(C4COC4)CC3)cn2)c1=O [Example 243, 2-[3-(hydroxymethyl)-4-[1-methyl-5-[[1-[1-(oxetan-3-yl)-4-piperidyl]imidazol-4-yl]amino]-6-oxo-3-pyridyl]-2-pyridyl]-3,4,6,7,8,9-hexahydropyrazino[1,2-a]indol-1-one]",2.8
23,"CN1CC(c2ccc(Nc3cc(-c4ccnc(N5CCc6c(cc7n6CCCC7)C5=O)c4CO)cn(C)c3=O)nc2)C1 [Example 244, 2-[3-(hydroxymethyl)-4-[1-methyl-5-[[5-(1-methylazetidin-3-yl)-2-pyridyl]amino]-6-oxo-3-pyridyl]-2-pyridyl]-3,4,6,7,8,9-hexahydropyrido[3,4-b]indolizin-1-one]",0.138
